From ChEMBL document CHEMBL3779870, “Differential metabolism of 3FDT and docetaxel in RLMs, rats, and HLMs” (Eur J Med Chem, 2016)

Tests used:
Type in all cases: ADME, organism-based
Settings in all cases: in vivo
Plasma = experiment: Drug level in Sprague-Dawley rat plasma treated with 3FDT at 40 mg/kg, iv administered as single dose after 4 to 24 hrs by HPLC-TIC chromatography
[1] = Drug level in Sprague-Dawley rat urine treated with 3FDT at 40 mg/kg, iv administered as single dose after 24 hrs by HPLC-TIC chromatography
[2] = Drug level in Sprague-Dawley rat feces treated with 3FDT at 40 mg/kg, iv administered as single dose after 24 hrs by HPLC-TIC chromatography

Measured: Drug metabolism

CC(=O)O[C@@]12CO[C@@H]1C[C@@H](O)[C@@]1(C)C(=O)[C@H](O)C3=C(C)[C@@H](OC(=O)[C@H](O)[C@@H](NC(=O)OC(C)(C)C(F)(F)F)c4ccccc4)C[C@@](O)([C@@H](OC(=O)c4ccccc4)C12)C3(C)C (stereo partly drawn)
metabolite_detected: Plasma | [1] | [2]
